Assay results reported in patent publication US20240408027A1, “HIGH DRUG LOADING POLYMERS” (priority 2021, published 2024).

Assay: Drug loading of paclitaxel, etoposide, chloroquine into core library (Example 3)

With `CC(=O)O[C@H]1C(=O)[C@@]2(C)[C@H]([C@H](OC(=O)c3ccccc3)[C@]3(O)C[C@H](OC(=O)[C@H](O)[C@@H](NC(=O)c4ccccc4)c4ccccc4)C(C)=C1C3(C)C)[C@]1(OC(C)=O)CO[C@@H]1C[C@@H]2O` [Paclitaxel, paclitaxel] the “core composition at loading maximum” value (polymer:drug 1:1) was 90 % B.
In the case of `COc1cc([C@@H]2c3cc4c(cc3[C@@H](O[C@@H]3O[C@@H]5CO[C@@H](C)O[C@H]5[C@H](O)[C@H]3O)[C@H]3COC(=O)[C@H]23)OCO4)cc(OC)c1O` [etoposide], the “LE+LC, fold higher in the absence of H-bonding groups in the core” value (100% B core) is reported as over 2 ×.
For `CCN(CC)CCCC(C)Nc1ccnc2cc(Cl)ccc12` (stereo not drawn) [chloroquine], the “loading trend with core composition” value (polymer:drug 1:1) was “increased loading with increasing H-bonding”.
